Source: US20060194814A1, “Benzamide compounds” (priority 2003, published 2006)
Counter-ions that a name gives are not always drawn.

Assays:
P-450scc enzyme = test: Immunoblot of P-450scc expression in Y1 cells; assay type: cell-based, mouse; settings: immunoblot of cell extracts
Experimental: At the end of the treatment protocol described above, Y1 cells at 90% confluency were washed 2 times with PBS, sonicated 15 seconds in extraction buffer and centrifuged at 18,500 g for 15 minutes at 4° C. Pellets were resuspended in ice-cold lysis buffer (1% Nonidet 40 in extraction buffer), sonicated briefly, and incubated on ice for 1 hour. After centrifugation (22,500 g×30 min, 4° C.), the supernatant was mixed in sample buffer 6× (0.27 M SDS, 0.6 M dithiothreitol, 0.18 M bromphenol blue in 7 ml of 0.5 M Tris-HCl, pH 6.8, and 3 ml glycerol) and boiled for 5 minutes. Proteins were subjected to SDS-PAGE (4-20% gradient SDS polyacrylamide gel) and electrophoretically transferred onto nitrocellulose membranes. The transblot sheets were blocked with 5% non fat dry milk in 25 mM Tris HCl, pH 7.5, 150 mM NaCl, and 0.1% Tween 20 overnight at 4° C. Membranes were then incubated with appropriately diluted primary antibodies 1:800 for anti-P-450scc (Research Diagnostics Inc. Flanders, N.J.) and 1:200 for anti-StAR (Amri et al., 1996), and the reaction was detected by a peroxidase-conjugated secondary antibody (Santa Cruz Biotechnology, Santa Cruz, Calif.) and enhanced chemiluminescence (Amersham Life, Arlington Heights, Ill.). The densities of the appropriate bands were determined using the OptiQuant Acquisition & Analysis software (Packard BioScience).

[1] = system: H295R human adrenal tumor cells; test: MTT mitochondrial function/cell viability in H295R cells; assay type: cell-based
Experimental: Cell viability at the end of the incubation protocol described above was assessed using the mitochondrial integrity 3-(4,5-dimethylthiazol-2-yl)-2,5-diphenyl tetrazolium bromide (MTT) assay (Trevigen, Gaithersburg, Md.). Briefly, 10 l of the MTT solution were added to the cells in 100 l medium. After an incubation period of 4 hours, 100 l of detergent were added and cells were incubated overnight at 37° C. Formazan blue formation was quantified at 600 nm and 690 nm using the Victor quantitative detection spectrophotometer (EGG-Wallac, Gaithersburg, Md.) and the results expressed as (OD600-OD690).

HMG-CoA reductase = HMG-CoA reductase activity in procaine-treated Y1 cells; assay type: cell-based, mouse; design: percent inhibition of HMG-CoA reductase activity: unit of the concentration uncertain
Experimental: Cells were washed twice with ice-cold PBS and incubated with ice-cold assay buffer (0.1M sucrose, 40 mM KH2PO4, 30 mM EDTA, 50 mM KCl, 5 mM DTT, 0.25% (v/v) of Brij 96, at pH 7.4) on ice for 20 minutes. After centrifugation for 3 minutes at 14000 g (4° C.) the supernatants were collected and used for HMG-CoA reductase activity assay. […] The reaction was started by adding substrate (^14C-HMG-CoA, 0.1 Ci) and stopped after 45 minutes by adding 10-1 of HCl 6M. ^3H-mevalonolactone was also added to the samples as an extraction recovery marker. After an additional 30 minutes incubation time, to allow complete lactonization of the product, the mixture was centrifuged.

HMG-CoA reductase mRNA = HMG-CoA reductase mRNA expression by Q-PCR in Y1 cells; assay type: cell-based, mouse
Experimental: After treatment, cells were stimulated with 1 mM dbcAMP for 24 hours. At the end of the incubation, total cell RNA was extracted using RNA STAT-60 (Tel-Test Inc, Friendswood, Tex.) according to the manufacturer's instructions. HMG-CoA reductase mRNA was quantified by Q-PCR using the ABI Prism 7700 sequence detection system (Perkin-Elmer/Applied Biosystems, Foster City, Calif.). RT reaction was performed using TaqMan® Reverse Transcription Reagents with 1 g total RNA and random hexamers as primers for each reaction according to the manufacturer's instructions. For quantifying mouse HMG-CoA reductase mRNA with Q-PCR, the primers were designed according to GenBank Accession Number BC 019782 using PE/AB Primer Express software, which is specifically designed for the selection of primers and probes. The forward primer was 5′-[…]-3′ (22 nucleotides; SEQ ID NO:1) and reverse primer was 5′-[…]-3′ (23 nucleotides; SEQ ID NO:2), respectively. The primers were synthesized by Bio-Synthesis Inc. (Lewisville, Tex.). Reactions were performed in a reaction mixture consisting of a 20 l volume solution containing 10 l SYBR® Green PCR Master Mix and 1 l primers mix (5 M each) with 2 l cDNA.

For CCN(CC)CCOC(=O)c1ccc(N)cc1 [SP01, procaine HCl], the “effect on expression of the P-450scc enzyme” value (P-450scc enzyme) was “did not modify”, the “effect on dbcAMP-induced change of mitochondrial function (MTT)” value [1] was “protected against the dbc-AMP-induced change of mitochondrial function” and the “percent inhibition of HMG-CoA reductase activity” value (HMG-CoA reductase; concentration 1 (unit uncertain)) was 44%. The “percent inhibition of HMG-CoA reductase activity” value (HMG-CoA reductase; concentration 10 (unit uncertain)) was 72%, the “percent inhibition of HMG-CoA reductase activity” value (HMG-CoA reductase; concentration 100 (unit uncertain)) was 70 and the “concentration giving maximal inhibition of HMG-CoA reductase activity” value (HMG-CoA reductase; dbcAMP stimulated) was 10 µM. For the same compound, the “effect on dbcAMP-induced HMG-CoA reductase mRNA levels” value (HMG-CoA reductase mRNA; pretreatment for 24 hours) was “reduced in a dose-dependent manner” and the “earliest treatment time inhibiting dbcAMP-induced HMG-CoA reductase mRNA expression” value (HMG-CoA reductase mRNA; time-course) was 6 h.
